Reference: patent EP1182208A2, “Composition for DNA transfection” (Roche Diagnostics GmbH, priority 2000, dated 2002)

Experiments:
[1] = system: HEK293-EBNA cells; assay: Influence of antibiotics on transient transfection in HL medium, luciferase expression (Example 13); type: cell-based, Human; settings: control without = 100, compound from Example 2 and PEI
Experimental: 1 mg of the compound from Example 2 was dissolved in 0.5 ml acetonitrile, mixed for 3-5 minutes at 37 °C, diluted in 0.5 ml sterile, pure water (1 mg/ml) and stored at 4 °C. 90 mg polyethelenimine (PEI), with a molecular weight of 25 kDa, were dissolved in sterile, pure water (0.9 mg/ml), neutralized with HCl, sterile filtered and stored at 4 °C. 3 µl of a plasmid solution (1 mg/ml) encoding the luciferase gene was added to 1.5 ml HL medium (containing 0.3% Primatone RL) and mixed. After 2 minutes incubation at room temperature, 2.25 µl of the compound from Example 2 (1mg/ml) was added and mixed, followed by 8.3 µl PEI (0.9 mg/ml). After mixing and incubation for 15-30 minutes at room temperature, the mixture was transferred into 15 ml of HEK293-EBNA cells containing different antibiotics. Cells which were grown in serum-free suspension culture in HL medium (containing 0.3% Primatone RL and different antibiotics) were transferred into fresh HL medium (containing 0.3% Primatone RL and different antibiotics), then adjusted to 5.5-6 x 10^6 cells/ml before adding the DNA complexes. The luciferase activity was measured in the soluble cell extract after 20-22 hours incubation time and expressed as relative light units per ml culture.

[2] = system: HEK293; assay: Luciferase transfection efficiency, serum-free suspension culture (Example 5); type: cell-based, Human; settings: soluble cell extract after 24 hours
Experimental: (§1) 1 mg of the compound obtained in Example 2 was dissolved in 500 µl sterile pure water (1 mg/ml) and stored at 4 °C. 90 mg polyethyleneimine, with a molecular weight of 25 kDa, was dissolved in sterile pure water (0.9 mg/ml), neutralized with HCl, sterile filtered and stored at room temperature.
(§2) 3 µl of a plasmid solution (1 mg/ml) encoding the luciferase gene was diluted in 1.5 ml culture medium and mixed. 2.25 µl compound (1 mg/ml) as described in Example 2 was added, mixed and followed by 8.3 µl PEI (0.9 mg/ml). After mixing and incubation for 10 minutes at room temperature, the mixture was transferred into 15 ml of various cells. Cells which were grown in serum-free suspension culture were transferred into fresh medium before adding the complexes. The luciferase activity was measured in the soluble cell extract after 24 hours incubation and expressed as relative light unit (RLU) per milligram protein.

[3] = system: HEK293-EBNA; assay: as above; type: cell-based, Human; settings: soluble cell extract after 24 hours
Experimental: as §1, §2

[4] = system: HEK293-EBNA cells; assay: Transient transfection of HEK293-EBNA cells in serum-free suspension culture, expression of soluble TNF receptor p55 (Example 3); type: cell-based, Human
Experimental: (§3) 1 mg of the compound obtained in Example 2 was dissolved in 500 µl acetonitrile, diluted in 500 µl sterile pure water (1 mg/ml) and stored at 4 °C. 15 µl of a plasmid solution (1 mg/ml) encoding the soluble human tumor necrosis factor receptor p55 gene was transferred into 1.5 ml medium and mixed. Various amounts of the compound obtained in […] was added, mixed and after 10 minutes at room temperature, the mixture was transferred to 15 ml HEK293-EBNA cells in suspension.

[5] = system: BHK 21 Cl; assay: Luciferase transfection efficiency, serum-free suspension culture (Example 5); type: cell-based; settings: soluble cell extract after 24 hours
Experimental: as §1, §2

[6] = system: Glioma C6; assay: as above; type: cell-based; settings: soluble cell extract after 24 hours
Experimental: as §1, §2

[7] = system: CHO dhfr-; assay: as above; type: cell-based; settings: soluble cell extract after 24 hours
Experimental: as §1, §2

[8] = system: HEK293-EBNA cells; assay: Cell viability of transfected HEK293-EBNA cells in serum-free suspension culture (Example 3); type: cell-based, Human; settings: compound-mediated transfection; serum-free suspension culture of HEK293-EBNA cells
Experimental: as §3

[9] = as above; type: cell-based, Human; settings: human, HEK293-EBNA cells in suspension, serum-free suspension culture
Experimental: as §3

[10] = system: HEK293-EBNA cells; assay: Effect of various compounds on DNA complex formation in DMEM/HAM F12 medium, luciferase expression (Example 11); type: cell-based, Human
Experimental: 1 mg of the compound from Example 2 was dissolved in 0.5 ml acetonitrile, mixed for 3-5 minutes at 37 °C, diluted in 0.5 ml sterile, pure water (1 mg/ml) and stored at 4 °C. 90 mg polyethelenimine (PEI), with a molecular weight of 25 kDa, were dissolved in sterile, pure water (0.9 mg/ml), neutralized with HCl, sterile filtered and stored at 4 °C.
Different growth promotion compounds were added to 1.5 ml DMEM/HAM F12 medium (without any compounds) and mixed. After 2-3 minutes, 3 µl of a plasmid solution (1 mg/ml) encoding the luciferase gene was added to the 1.5 ml […] and mixed. After 2 minutes incubation at room temperature, 2.25 µl of the compound from Example 2 (1mg/ml) was added and mixed, followed by 8.3 µl PEI (0.9 mg/ml). After mixing and incubation for 15-30 minutes at room temperature, the mixture was transferred into 15 ml of HEK293-EBNA cells. Cells which were grown in serum-free suspension culture in HL medium (containing 0.3% Primatone RL) were transferred into fresh HL medium (containing 0.3% Primatone RL) then adjusted to 5.5-6 x 10^6 cells/ml before adding the DNA complexes. The luciferase activity was measured in the soluble cell extract after 20-22 hours incubation time and expressed as relative light units per ml culture. […]

C[C@H]1c2cccc(O)c2C(=O)C2=C(O)[C@]3(O)C(=O)C(C(N)=O)=C(O)[C@@H](N(C)C)[C@@H]3[C@@H](O)[C@@H]21 [Doxycycline]
Luciferase activity ([1]; antibiotic 2 µg/ml in HL medium with Primatone RL (0.3%)): 89%

CN[C@@H]1[C@@H](O)[C@@H](O[C@@H]2[C@@H](O)[C@H](O[C@H]3O[C@H]([C@@H](C)O)[C@@H](O)[C@H](O)[C@H]3N)[C@@H](N)C[C@H]2N)OC[C@]1(C)O [Geneticin (G-418), Geneticin]
Luciferase activity ([1]; antibiotic 250 µg/ml in HL medium with Primatone RL (0.3%)): 93%

CCCCCCCC/C=C\CCCCCCCC(=O)OC[C@H](COP(=O)(O)OCCNC(=O)CCSSC[C@@H](NC(=O)[C@H](NC(=O)CNC(=O)[C@@H](C)NC(=O)[C@H](NC(=O)[C@@H](CC(C)C)NC(=O)[C@@H](CCCCN)NC(=O)[C@H](NC(=O)[C@@H](CC(C)C)NC(=O)[C@H](NC(=O)[C@H](NC(=O)CNC(=O)[C@@H](CC(C)C)NC(=O)[C@H]1CCCN1C(=O)[C@@H](C)NC(=O)[C@@H](CC(C)C)NC(=O)[C@H](NC(=O)[C@@H](CO)NC(=O)[C@@H](Cc1c[nH]c2ccccc12)NC(=O)[C@H](NC(=O)[C@@H](CCCCN)NC(=O)[C@@H](CCCNC(=N)N)NC(=O)[C@@H](CCCCN)NC(=O)[C@@H](CCCNC(=N)N)NC(=O)[C@@H](CCC(N)=O)NC(=O)[C@H](N)CCC(N)=O)[C@H](C)CC)[C@H](C)CC)[C@H](C)O)[C@H](C)O)C(C)C)C(C)C)[C@H](C)CC)C(N)=O)OC(=O)CCCCCCC/C=C\CCCCCCCC [Compound, retro-inverso dioleylmelittin]
Luciferase activity [2]: 1.8 x 10^6 RLU/mg protein
Luciferase activity [3]: 2.2 x 10^6 RLU/mg protein
TNFRp55 ([4]; Compound 1 µg/ml): 0.1 ng/mL
TNFRp55 ([4]; Compound 2 µg/ml): 0.2 ng/mL
TNFRp55 ([4]; Compound 4 µg/ml): 2.5 ng/mL
TNFRp55 ([4]; Compound 6 µg/ml): 6.3 ng/mL
TNFRp55 ([4]; Compound 10 µg/ml): 83 ng/mL
Luciferase activity [5]: 5.2 x 10^5 RLU/mg protein
Luciferase activity [6]: 5.8 x 10^6 RLU/mg protein
Luciferase activity [7]: 1.4 x 10^6 RLU/mg protein
cell toxicity effects [8]: absence of detectable cell toxicity effects
viability at 1 µg/mL ([9]; Compound 1 µg/ml): 90 to 95%
viability at 2 µg/mL ([9]; Compound 2 µg/ml): 90 to 95%
viability at 4 µg/mL ([9]; Compound 4 µg/ml): 90 to 95%
viability at 6 µg/mL ([9]; Compound 6 µg/ml): 90 to 95%
viability at 10 µg/mL ([9]; Compound 10 µg/ml): 90 to 95%

Gentamycin
Luciferase activity ([1]; antibiotic 50 µg/ml in HL medium with Primatone RL (0.3%)): 80%

NC(=O)CC[C@H](N)C(=O)O [Glutamine 200 mM, Glutamine]
% Increase ([10]; additive 1:100, Primatone RL was set as 100 %): 13%
Luciferase activity ([10]; additive dilution 1:100 in DMEM/HAM F12, compound from Example 2 and PEI): 1.06 RLU x 10^9/ml
